Laboratory results published in patent publication US11492379B2 (priority 2020, dated 2022).

System: icSARS-CoV-2-GFP
Assay type: cell-based, SARS-CoV-2

**Q.** Which results are given for trypsin?
**A.** syncytium formation: did not trigger syncytium formation; virus titers relative to controls: slightly lower virus titers than controls
